Consider 6 molecules from patent publication US7598029B2, “Method for identifying HIV-1 protease inhibitors with reduced metabolic affects” (Bristol-Myers Squibb Company, priority 2006, dated 2009).

The target of series [1] is T1, cathepsin D (Homo sapiens, UniProt P07339).
T1 construct: purchased R&D Systems Inc
Put plainly: Protease digestion of resistin by cathepsin D with HIV-1 protease inhibitors, SDS-PAGE. Type of series: biochemical. As to conditions: for inhibition of cleavage of resistin by cathepsin D: 1 ug alkylated and reduced resistin, 0.1 ug cathepsin D. On the procedure:
(§1) Atazanavir was synthesized by and provided in pure form from the Chemistry Division of Bristol-Myers Squibb Co. All compounds were dissolved in 100% DMSO (Sigma). The final concentration of DMSO was 0.2% in experiments that included a protease inhibitor.
(§2) Recombinant Proteins: Recombinant human and mouse resistin were obtained from Santa Cruz Biotech. Recombinant cathepsin D and cathepsin E were obtained from R&D Systems Inc. Recombinant HIV-1 protease was obtained from Protein One. Recombinant renin was obtained from Cayman Chemical and recombinant trypsin was from Promega.
(§3) Alkylation/Reduction of Cysteine Residues: Lyophilized resistin (24 micrograms) was resuspended in 50 ul of fresh UA buffer (8 M urea, 0.4 M ammonium bicarbonate) and 5 ul of 45 mM DTT. The mixture was then incubated at 50° C. for 15 min, followed by addition of 5 ul of 0.1 M iodoacetamide. The reaction was then incubated for an additional 15 min in the dark at room temperature, followed by the addition of 140 ul of H20.
(§4) Preparation of Proteases: Lyophilized cathepsin D (10 ug) was resuspended in 100 ul H20. Cathepsin D was activated prior to use by incubating at 20 ng/ul in CathD buffer (100 mM NaOAc, 200 mM NaCl, pH 4.7) for 30 min at 37° C. Lyophilized cathepsin E (10 ug) was resuspended in 100 ul of reconstitution buffer (25 mM MES, 0.15 M NaCl, pH 6.5). Cathepsin E was activated prior to use by incubating at 20 ng/ul in CathE buffer (100 mM NaOAc, 100 mM NaCl, pH 4.7) for 30 min at room temperature. Renin was diluted to 20 ng/ul in renin buffer (50 mM Tris-HCl, pH 8, 100 mM NaCl) prior to use. Lyophilized trypsin (20 ug) was resuspended in 500 ul reconstitution buffer provided by the manufacturer (Promega). Trypsin was activated prior to use by incubating for 15 min at 30° C. HIV-1 protease was used directly from the manufacturer.
(§5) Protease Digestion Experiments: In all protease digestion reactions, 1 ug of alkylated and reduced resistin was incubated with either 1 ug HIV-1 protease, 0.1 ug cathepsin D, 0.1 ug cathepsin E or 0.1 ug trypsin. HIV-1 protease digestion was performed in HIV-1 PR buffer (50 mM MES (pH 6), 100 mM NaCl). Trypsin digestion was performed in TE buffer (10 mM Tris (pH 8), 0.1 mM EDTA (pH 8)). The respective reaction buffers for cathepsin D, cathepsin E and renin are listed above under “Preparation of proteases”. […] All protease digestion experiments were incubated for 24 hr at 37° C. with the exception of experiments containing cathepsin E, which were incubated at room temperature. Reactions were quenched in LDS loading dye (Invitrogen) containing reducing agent (Invitrogen). Reactions were subsequently heated at 70° C. for 5 min prior analysis by SDS-PAGE.
(§6) SDS-PAGE Analysis: Cleavage products were resolved using 4-12% Bis-Tris NUPAGE® Gels (Invitrogen). Gels were run at 200 V for 20 min in MES buffer. Protein bands were visualized by staining with Gel Code reagent (Pierce).

Series [2] addresses T2, cathepsin E (Homo sapiens, UniProt P14091).
T2 construct: purchased R&D Systems Inc
T2 sequence (P14091 54-396): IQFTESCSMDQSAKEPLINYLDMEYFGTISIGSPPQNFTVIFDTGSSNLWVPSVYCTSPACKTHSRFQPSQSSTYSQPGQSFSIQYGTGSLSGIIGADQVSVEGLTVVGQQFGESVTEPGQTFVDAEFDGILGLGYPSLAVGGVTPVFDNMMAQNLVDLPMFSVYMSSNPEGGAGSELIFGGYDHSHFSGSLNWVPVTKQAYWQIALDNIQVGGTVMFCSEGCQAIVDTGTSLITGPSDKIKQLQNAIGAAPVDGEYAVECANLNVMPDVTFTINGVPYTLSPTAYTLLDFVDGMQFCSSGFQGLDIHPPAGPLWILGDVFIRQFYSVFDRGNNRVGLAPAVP
The series can be described thus: Protease digestion of resistin by cathepsin E with HIV-1 protease inhibitors, SDS-PAGE. The format is biochemical. The settings on record: for inhibition of cleavage of resistin by cathepsin E: 1 ug alkylated and reduced resistin, 0.1 ug cathepsin E. On the procedure:
as §1, §2, §3, §4, §5, §6

The conditions of series [3]: human, in vivo; cited from earlier work.

SMILES strings stand for the structures.

T1 sequence (P07339 65-412): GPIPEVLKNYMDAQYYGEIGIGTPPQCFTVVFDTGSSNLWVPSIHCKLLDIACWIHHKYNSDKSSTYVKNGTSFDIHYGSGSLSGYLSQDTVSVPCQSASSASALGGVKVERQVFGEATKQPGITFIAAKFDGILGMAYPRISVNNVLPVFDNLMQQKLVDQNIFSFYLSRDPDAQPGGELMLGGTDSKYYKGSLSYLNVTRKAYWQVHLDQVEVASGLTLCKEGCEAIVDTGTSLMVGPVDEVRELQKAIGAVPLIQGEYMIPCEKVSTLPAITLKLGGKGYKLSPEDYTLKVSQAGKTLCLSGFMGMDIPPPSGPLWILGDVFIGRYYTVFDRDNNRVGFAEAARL

`COC(=O)N[C@H](C(=O)N[C@@H](Cc1ccccc1)[C@@H](O)CN(Cc1ccc(-c2ccccn2)cc1)NC(=O)[C@@H](NC(=O)OC)C(C)(C)C)C(C)(C)C` [atazanavir]: the “inhibition of cleavage of resistin by cathepsin D” value (“inhibition … by cathepsin D” for short) in series [1] (24 hr at 37° C.) is reported as “not detectably inhibited”. Moreover, the “inhibition of cleavage of resistin by cathepsin E” value (“inhibition … by cathepsin E” for short) in series [2] (24 hr at room temperature) was “not detectably inhibited”. Also, in series [3], the “change in fasting LDL cholesterol, total cholesterol, and fasting triglycerides” value is reported as “either no change or decreases”.
As for `CC(C)(C)NC(=O)[C@@H]1CN(Cc2cccnc2)CCN1C[C@@H](O)C[C@@H](Cc1ccccc1)C(=O)N[C@H]1c2ccccc2C[C@H]1O` [indinavir], the “inhibition … by cathepsin D” value in series [1] (24 hr at 37° C.) is “not”. Besides, the “inhibition … by cathepsin E” value in series [2] (24 hr at room temperature) is given as “not”.
Take `Cc1cccc(C)c1OCC(=O)N[C@@H](Cc1ccccc1)[C@@H](O)C[C@H](Cc1ccccc1)NC(=O)[C@H](C(C)C)N1CCCNC1=O` [lopinovir]: the “correlation of lipid abnormalities with plasma concentrations” value in series [3] was “did not correlate”.
With `Cc1c(O)cccc1C(=O)N[C@@H](CSc1ccccc1)[C@H](O)CN1C[C@H]2CCCC[C@H]2C[C@H]1C(=O)NC(C)(C)C` [nelfinavir], the “inhibition … by cathepsin D” value in series [1] (24 hr at 37° C.) is reported as “not”. The “inhibition … by cathepsin E” value in series [2] (24 hr at room temperature) is listed as “not”. The “association with HIV-1 protease inhibitor induced metabolic abnormalities” value in series [3] was “are not”.
In the case of `CC(C)c1nc(CN(C)C(=O)N[C@H](C(=O)N[C@@H](Cc2ccccc2)C[C@H](O)[C@H](Cc2ccccc2)NC(=O)OCc2cncs2)C(C)C)cs1` [ritonavir], the “concentration at which cleavage of resistin by cathepsin D was detectably inhibited” value in series [1] (24 hr at 37° C., FIG. 2) came to 30 µM; in series [1] (Example 1, FIG. 2, 24 hr at 37° C.), 30 µM. Also, the “concentration at which cathepsin D was fully inhibited” value in series [1] (Example 1, resistin cleavage) turned out to be 100 µM; in series [1] (resistin cleavage, 24 hr at 37° C.), 100 µM. Further, the “concentration at which cleavage of resistin by cathepsin E was detectably inhibited” value in series [2] (24 hr at room temperature, FIG. 2) was 10 µM; in series [2] (Example 1, FIG. 2, 24 hr at room temperature) it was 10 µM. In addition, the “concentration at which cathepsin E was fully inhibited” value in series [2] (Example 1, resistin cleavage) came to 30 µM; in series [2] (resistin cleavage, 24 hr at room temperature), 30 µM. In addition, the “elevated plasma cholesterol and plasma triglyceride levels” value in series [3] is on record as “significantly more pronounced”. Also, in series [3], the frequency of hypertriglyceridaemia entry is “more frequent”. The hypercholesterolemia result in series [3] is “observed”. For the same molecule, the hypertriglyceridaemia entry in series [3] was “severe hypertriglyceridaemia”.
On to `CC(C)(C)NC(=O)[C@@H]1C[C@@H]2CCCC[C@@H]2CN1C[C@@H](O)[C@H](Cc1ccccc1)NC(=O)[C@H](CC(N)=O)NC(=O)c1ccc2ccccc2n1` [saquinavir], for which the “inhibition … by cathepsin D” value in series [1] (24 hr at 37° C.) is “prevented”. In addition, the “inhibition … by cathepsin E” value in series [2] (24 hr at room temperature) is recorded as “prevented”. The “association with HIV-1 protease inhibitor induced metabolic abnormalities” value in series [3] is “known to be associated”.
